According to patent US20130045952A1, “ABA Receptor Agonists for Increased Plant Stress Resistance” (Van Andel Research Institute, priority 2011, published 2013):

What was measured:
Type in all cases: biochemical
His6-PYR1 / biotin-PP2C = target: T1, His6-PYR1 / biotin-PP2C (Arabidopsis thaliana, UniProt O49686); assay: AlphaScreen luminescence proximity assay, PYR1-PP2C interaction; conditions: for Stimulation of the interaction between PYR1 and PP2C (binding signal): 100 nM His6-PYR1, 100 nM biotin-PP2C, 100 μM agonist, normalized against a pyrabactin control
T1 construct: made in house; host or cells: E. coli is stated for PYL1, PYL2 and the PP2Cs, not expressly for PYR1
T1 sequence (O49686 1-191): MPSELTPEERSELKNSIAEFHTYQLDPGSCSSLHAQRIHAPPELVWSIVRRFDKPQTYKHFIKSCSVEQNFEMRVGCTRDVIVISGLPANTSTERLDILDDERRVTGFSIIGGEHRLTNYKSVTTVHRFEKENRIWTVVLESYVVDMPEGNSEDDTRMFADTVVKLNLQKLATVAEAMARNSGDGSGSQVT
Procedure: (§1) Mutant proteins were expressed as H6GST-fusion proteins and purified by glutathione sepharose chromatography. Protein-protein interactions were determined by luminescence proximity AlphaScreen assay. Biotinylated PP2C proteins for the luminescence proximity assay were generated by in vivo biotinylation of avitag-PP2C fusion proteins. PP2C phosphatase activity was measured by phosphate release from a SnRK2.6 phosphoprotein.
(§2) Interactions between PYR/PYL and PP2Cs were assessed by luminescence-proximity AlphaScreen technology (Perkin Elmer). Briefly, biotinylated PP2Cs were attached to streptavidin-coated donor beads, and H6-tagged PYR/PYL receptors were attached to nickel-chelated acceptor beads. The donor and acceptor beads were brought into proximity by the interactions between PYR/PYLs and PP2Cs, which were measured with and without ligands. When excited by a laser beam of 680 nm, the donor beam emits singlet oxygen that activates thioxene derivatives in the acceptor beads, which releases photons of 520-620 nm as the binding signal. The experiments were conducted with 100 nM of PP2Cs and PYR/PYL proteins in the presence of 5 ug/ml donor and acceptor beads in a buffer of 50 mM MOPS, pH7.4, 50 mM NaF, […], and 0.1 mg/ml bovine serum albumin. The results were based on an average of three experiments with standard errors typically less than 10% of the measurements.
(§3) Values were determined in different experiments and normalized against a pyrabactin control. Blank spaces mean no experimental data is available. Key (photon counts (binding signal units) in Alphascreen luminescence proximity assay): “+++ is >75,000; ++ is 25,000−75,000; + is <25,000.

His6-PYL2 / biotin-PP2C = target: T2, His6-PYL2 / biotin-PP2C (Arabidopsis thaliana, UniProt O80992); assay: AlphaScreen luminescence proximity assay, PYL2-PP2C interaction; conditions: for Stimulation of the interaction between PYL2 and PP2C (binding signal): 100 nM His6-PYL2, 100 nM biotin-PP2C, 100 μM agonist, normalized against a pyrabactin control
T2 construct: PYL2 (residues 14-188), and HAB1 (residues 172-511) were prepared as recombinant proteins in E. coli; made in house; host or cells: E. coli
T2 sequence (O80992 14-188): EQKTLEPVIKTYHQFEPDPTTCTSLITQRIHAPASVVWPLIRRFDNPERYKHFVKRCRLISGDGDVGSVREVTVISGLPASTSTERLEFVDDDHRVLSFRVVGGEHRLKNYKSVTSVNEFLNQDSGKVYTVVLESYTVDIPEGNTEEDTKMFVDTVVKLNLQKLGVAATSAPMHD
Procedure: as §1, §2, §3

His6-PYR1 / biotin-HAB1 = target: T3, His6-PYR1 / biotin-HAB1 (Arabidopsis thaliana, UniProt O49686); assay: AlphaScreen dose response, PYR1-HAB1 interaction; conditions: 100 nM His6-PYR1, 100 nM biotin-PP2C, 0-100 μM agonist; from dose response curves
T3 construct: made in house; host or cells: E. coli (stated for the PP2Cs; not expressly for PYR1)
T3 sequence (O49686 1-191): T1 sequence (O49686 1-191)
T3 sequence (Q9CAJ0 172-511 partner limits assumed): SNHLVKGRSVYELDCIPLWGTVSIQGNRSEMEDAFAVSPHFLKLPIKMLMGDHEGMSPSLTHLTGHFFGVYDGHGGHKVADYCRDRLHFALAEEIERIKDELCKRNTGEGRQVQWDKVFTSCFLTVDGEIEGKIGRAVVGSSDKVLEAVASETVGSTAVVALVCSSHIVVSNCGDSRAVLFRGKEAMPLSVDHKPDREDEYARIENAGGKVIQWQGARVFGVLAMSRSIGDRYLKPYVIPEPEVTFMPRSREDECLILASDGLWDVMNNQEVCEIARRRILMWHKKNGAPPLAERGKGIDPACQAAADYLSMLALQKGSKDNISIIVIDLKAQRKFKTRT
Procedure: as §2
The results shown in Table 5b were calculated from the dose response curves of the dependence of the interaction between 100 nM His6-PYR1 and 100 nM biotin-PP2C on the presence of 0-100 μM agonists determined by AlphaScreen luminescence proximity assay. Key (EC50 in μM): ++++=<5.0 μM; +++=5-10 μM; ++=10-20 μM; and +=>20-60 μM.

ABI1 = target: T4, ABI1 (Arabidopsis thaliana, UniProt O49686+P49597); assay: PP2C phosphatase activity assay, ABI1; conditions: 200 nM PP2C; SnRK2.6 phosphopeptide substrate; None = 100
T4 construct: ABI1 (residues 117-434) and ABI2 (residues 101-423) were expressed as H6Sumo fusion proteins; H6Sumo (N); made in house; host or cells: E. coli BL21
T4 sequence (P49597 117-434 limits assumed): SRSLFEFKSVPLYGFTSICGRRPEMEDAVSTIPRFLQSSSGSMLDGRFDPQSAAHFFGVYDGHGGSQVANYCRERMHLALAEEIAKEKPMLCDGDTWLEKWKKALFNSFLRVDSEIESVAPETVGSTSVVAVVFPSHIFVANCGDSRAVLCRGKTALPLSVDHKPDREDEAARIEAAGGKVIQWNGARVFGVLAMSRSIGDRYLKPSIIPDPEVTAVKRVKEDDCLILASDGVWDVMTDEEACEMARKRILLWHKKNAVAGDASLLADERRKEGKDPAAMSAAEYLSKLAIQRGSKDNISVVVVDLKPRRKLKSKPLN
T4 sequence (O49686 1-191): T1 sequence (O49686 1-191)
Procedure: as §1
PP2Cs and PYR/PYL proteins were pre-incubated at the indicated concentrations in 50 mM imidazole, pH 7.2, 5 mM MgCl2, 0.1% β-mercaptoethanol and 0.5 mg/ml BSA for 30 min at room temperature. Reactions were started by addition of 100 μM of a phosphopeptide corresponding to amino acids 170-180 of SnRK2.6 (HSQPK^pSTVGTP). This peptide is phosphorylated at a single residue corresponding to Ser175 in SnRK2.6, whose phosphorylation is required for SnRK2.6 kinase activity^32. Phosphate release from ^pS175 from the phosphopeptide was determined by colorimetric assay (BioVision).

[1] = purified proteins in vitro, HAB1, ABI1, ABI2

Stimulation of the interaction between PYR1 and PP2C (binding signal) (His6-PYR1 / biotin-PP2C)	Stimulation of the interaction between PYL2 and PP2C (binding signal) (His6-PYL2 / biotin-PP2C)	EC50 (His6-PYR1 / biotin-HAB1) [µM]	% Phosphatase Activity ABI1 (ABI1) [%]	Structure (SMILES)	Promotion of PYR1 interaction with the three PP2Cs (His6-PYR1 / biotin-PP2C; [1])	Effect on ABA-dependent PYL2 interaction with all three PP2Cs (His6-PYL2 / biotin-PP2C; in the presence of ABA, concentration-dependent)	Promotion of PYL2 interaction with the three PP2Cs (His6-PYL2 / biotin-PP2C; [1])
+++ (+++ is >75,000)	+ (+ is <25,000)	5 to 10	4.3 ± 0.8	CCOC(=O)CNS(=O)(=O)c1ccc2c3c(cccc13)C(=O)N2CC [Compound 2]			
+ (+ is <25,000)	+ (+ is <25,000)	20 to 60	3.3 ± 1.0	O=C1Nc2ccc(S(=O)(=O)NCc3ccccn3)c3cccc1c23 [Compound 1]			
+++ (+++ is >75,000)	+ (+ is <25,000)	5 to 10	4.7 ± 1.0	CCN1C(=O)c2cccc3c(S(=O)(=O)NC[C@@H]4CCCO4)ccc1c23 [Compound 11]			

Structure (SMILES)	Stimulation of the interaction between PYR1 and PP2C (binding signal) (His6-PYR1 / biotin-PP2C)	Stimulation of the interaction between PYL2 and PP2C (binding signal) (His6-PYL2 / biotin-PP2C)	EC50 (His6-PYR1 / biotin-HAB1) [µM]	% Phosphatase Activity ABI1 (ABI1) [%]	Promotion of PYR1 interaction with the three PP2Cs (His6-PYR1 / biotin-PP2C; [1])	Effect on ABA-dependent PYL2 interaction with all three PP2Cs (His6-PYL2 / biotin-PP2C; in the presence of ABA, concentration-dependent)	Promotion of PYL2 interaction with the three PP2Cs (His6-PYL2 / biotin-PP2C; [1])
O=S(=O)(NCc1ccccn1)c1ccc(Br)c2ccccc12 [Pyrabactin, pyrabactin]			< 5	2.8 ± 0.2	strongly promoted	inhibited	did not promote
